Measurements: US9828386B2 (priority 2013, dated 2017)
Like-named read-outs stand apart in the source and are kept apart here.

Columns and labels:
Test in all cases: cells
Assay type in all cases: cell-based
BGC823 cell line = conditions: BGC823 cells, MTT, 48 h cultivation; read-out: IC50 (μM) BGC823
Procedure: (§1) Test of compounds of embodiment of the present invention on inhibiting tumor cell activity
(§2) 3, cell lines: A549, BGC823, Hela cell line and normal human hepatocytes which are available from Wu Han boster Co., Ltd.;
(§3) A549, BGC823, Hela cell line and normal human hepatocytes in logarithmic growth phase are subjected to 1000 rpm centrifugation for 5 min, supernatant is then discarded, moderate medium is suspended, the cell concentration is adjusted to 3.5×10^4/well, the cells were seeded in 96-wells culture plate, and following experimental groups are set:
(§4) a negative control group; 35 test groups with same concentration (ie: groups of Compound (1) to Compound (35)); three control groups: groups of podophyllotoxin, 4′-demethylepipodophyllotoxin and etoposide.
(§5) Taking RPMI1640 containing 10% of calf serum as nutrient solution, 0.10 mL of cells per well is incubated under conditions of 37° C., 5% CO2 and saturated humidity for 24 h to nearly be covered, then the nutrient solution is discarded. […] 100 μl of DMSO is added to each well, then vibrated at 37° C. by shaker table for 30 min, then measuring absorbance (OD) at 492 nm, calculating MTT ratio=OD value of drug group/OD value of the negative control group.

Hela cell line = conditions: Hela cells, MTT, 48 h cultivation, read-out: IC50 (μM) Hela
Procedure: as §1, §2, §3, §4, §5

A549 cell line = conditions: A549 cells, MTT, 48 h cultivation; read-out: IC50 (μM) A549
Procedure: as §1, §2, §3, §4, §5

| IC50 (Hela cell line; Homo sapiens) | Compound | IC50 (BGC823 cell line) | IC50 (Hela cell line) | IC50 (A549 cell line) |
| --- | --- | --- | --- | --- |
| – | 4-S-(5-methyl-1,2,4-triazole-3)-4-deoxy-4′-demethylepipodophyllotoxin [Compound 20] | 0.21 ± 0.35 µM | 6.62 ± 0.35 µM | 0.35 ± 0.37 µM |
| – | COc1cc(C2c3cc4c(cc3C(O)C3COC(=O)C23)OCO4)cc(OC)c1O (stereo not shown) [4′-demethylepipodophyllotoxins, 4′-demethylepipodophyllotoxin, reference compound] | 63.09 ± 0.49 µM | 49.32 ± 0.38 µM | 52.9 ± 0.85 µM |
| – | COc1cc(C2c3cc4c(cc3C(Sc3n[nH]c(N)n3)C3COC(=O)C23)OCO4)cc(OC)c1OC (stereo not drawn) [Compound 1, 4-S-(3-amino-1,2,4-triazole-5)-4-deoxy-podophyllotoxin] | 0.83 ± 0.14 µM | 2.86 ± 0.34 µM | 5.76 ± 0.34 µM |
| – | COc1cc(C2c3cc4c(cc3C(Sc3n[nH]c(C)n3)C3COC(=O)C23)OCO4)cc(OC)c1OC (stereo not drawn) [Compound 2, 4-S-(5-methyl-1,2,4-triazole-3)-4-deoxy-podophyllotoxin] | 0.27 ± 0.03 µM | 0.15 ± 0.03 µM | 1.01 ± 0.28 µM |
| – | COc1cc(C2c3cc4c(cc3C(Sc3nnc(N)s3)C3COC(=O)C23)OCO4)cc(OC)c1OC (stereo not drawn) [Compound 3, 4-S-(2-amino-1,3,4-thiadiazole-5)-4-deoxy-podophyllotoxin] | 0.71 ± 0.03 µM | 0.06 ± 0.01 µM | 1.98 ± 2.54 µM |
| – | COc1cc(C2c3cc4c(cc3C(Sc3nnc(C)s3)C3COC(=O)C23)OCO4)cc(OC)c1OC (stereo not drawn) [Compound 4, 4-S-(5-methyl-1,3,4-thiadiazol-2)-4-deoxy-podophyllotoxin] | 4.01 ± 0.02 µM | 2.18 ± 0.07 µM | 4.11 ± 0.93 µM |
| – | COc1cc(C2c3cc4c(cc3C(Sc3ccccn3)C3COC(=O)C23)OCO4)cc(OC)c1OC (stereo not drawn) [Compound 5, 4-S-(pyridin-2)-4-deoxy-podophyllotoxin] | 4.76 ± 0.12 µM | 0.73 ± 0.05 µM | 5.66 ± 0.47 µM |
| – | COc1cc(C2c3cc4c(cc3C(Sc3ncccc3C(=O)O)C3COC(=O)C23)OCO4)cc(OC)c1OC (stereo not drawn) [Compound 6, 4-S-(3-picolinate-2)-4-deoxy-podophyllotoxin] | 2.65 ± 0.53 µM | 1.71 ± 0.07 µM | 0.83 ± 0.25 µM |
| – | COc1cc(C2c3cc4c(cc3C(Sc3cccc(C)n3)C3COC(=O)C23)OCO4)cc(OC)c1OC (stereo not drawn) [Compound 7, 4-S-(6-methyl-pyridin-2)-4-deoxy-podophyllotoxin] | 3.51 ± 0.14 µM | 0.9 ± 0.05 µM | 1.12 ± 0.28 µM |
| – | COc1cc(C2c3cc4c(cc3C(Sc3ccncc3)C3COC(=O)C23)OCO4)cc(OC)c1OC (stereo not drawn) [Compound 8, 4-S-(pyridin-4)-4-deoxy-podophyllotoxin] | 1.52 ± 0.11 µM | 3.85 ± 0.14 µM | 8.12 ± 0.09 µM |
| – | COc1cc(C2c3cc4c(cc3C(Sc3ncccn3)C3COC(=O)C23)OCO4)cc(OC)c1OC (stereo not drawn) [Compound 9, 4-S-(pyrimidine-2)-4-deoxy-podophyllotoxin] | 0.71 ± 0.14 µM | 3.64 ± 0.46 µM | 6.4 ± 0.38 µM |
| – | COc1cc(C2c3cc4c(cc3C(Sc3nccc(N)n3)C3COC(=O)C23)OCO4)cc(OC)c1OC (stereo not drawn) [Compound 10, 4-S-(4-amino-pyrimidine-2)-4-deoxy-podophyllotoxin] | 1.32 ± 0.15 µM | 1.85 ± 0.12 µM | 4.65 ± 0.26 µM |
| – | COc1cc(C2c3cc4c(cc3C(Sc3nc(C)cc(C)n3)C3COC(=O)C23)OCO4)cc(OC)c1OC (stereo not drawn) [Compound 11, 4-S-(4,6-dimethyl-pyrimidine-2)-4-deoxy-podophyllotoxin] | 1.99 ± 0.34 µM | 0.11 ± 0.01 µM | 3.31 ± 0.26 µM |
| – | COc1cc(C2c3cc4c(cc3C(Sc3nc5ccccc5s3)C3COC(=O)C23)OCO4)cc(OC)c1OC (stereo not drawn) [Compound 12, 4-S-(benzothiazol-2)-4-deoxy-podophyllotoxin] | 0.31 ± 0.34 µM | 0.6 ± 0.39 µM | 3.85 ± 0.47 µM |
| – | COc1cc(C2c3cc4c(cc3C(Sc3nc5ccccc5[nH]3)C3COC(=O)C23)OCO4)cc(OC)c1OC (stereo not drawn) [Compound 13, 4-S-(benzimidazol-2)-4-deoxy-podophyllotoxin] | 2.32 ± 0.01 µM | 3.1 ± 0.16 µM | 6.76 ± 4.31 µM |
| – | COc1cc(C2c3cc4c(cc3C(Sc3nc5ccccc5o3)C3COC(=O)C23)OCO4)cc(OC)c1OC (stereo not drawn) [Compound 14, 4-S-(benzoxazole-2)-4-deoxy-podophyllotoxin] | 0.21 ± 0.02 µM | 0.92 ± 0.08 µM | 1.01 ± 0.14 µM |

| IC50 (Hela cell line; Homo sapiens) | Compound | IC50 (BGC823 cell line) | IC50 (Hela cell line) | IC50 (A549 cell line) |
| --- | --- | --- | --- | --- |
| – | COc1cc(C2c3cc4c(cc3C(Sc3nc(NS(=O)(=O)c5ccc(C)cc5)n[nH]3)C3COC(=O)C23)OCO4)cc(OC)c1OC (stereo not drawn) [Compound 15, 4-S-[3-N-(4-methyl-benzenesulfonamide-)-1,2,4-triazole-5-]-4-deoxy-podophyllotoxin] | 1.69 ± 0.07 µM | 0.6 ± 0.08 µM | 2.36 ± 0.23 µM |
| – | COc1ccc(S(=O)(=O)Nc2n[nH]c(SC3c4cc5c(cc4C(c4cc(OC)c(OC)c(OC)c4)C4C(=O)OCC34)OCO5)n2)cc1 (stereo not drawn) [Compound 16, 4-S-[3-N-(4-methoxy-benzenesulfonamide-)-1,2,4-triazole-5-]-4-deoxy-podophyllotoxin] | 0.67 ± 0.05 µM | 1.56 ± 0.05 µM | 1.24 ± 0.33 µM |
| – | COc1cc(C2c3cc4c(cc3C(Sc3nnc(NS(=O)(=O)c5ccc(C)cc5)s3)C3COC(=O)C23)OCO4)cc(OC)c1OC (stereo not drawn) [Compound 17, 4-S-[2-N-(4-methyl-benzenesulfonamide-)-1,3,4-thiadiazole-5-]-4-deoxy-podophyllotoxin] | 1.04 ± 0.13 µM | 0.97 ± 0.02 µM | 1.12 ± 1.74 µM |
| – | COc1ccc(S(=O)(=O)Nc2nnc(SC3c4cc5c(cc4C(c4cc(OC)c(OC)c(OC)c4)C4C(=O)OCC34)OCO5)s2)cc1 (stereo not drawn) [Compound 18, 4-S-[2-N-(4-methoxy-benzenesulfonamide-)-1,3,4-thiadiazole-5-]-4-deoxy-podophyllotoxin] | 1.27 ± 0.13 µM | 4.14 ± 0.47 µM | 4.05 ± 0.15 µM |
| – | COc1cc(C2c3cc4c(cc3C(Sc3nc(N)n[nH]3)C3COC(=O)C23)OCO4)cc(OC)c1O (stereo not drawn) [Compound 19, 4-S-(3-amino-1,2,4-triazole-5)-4-deoxy-4′-demethylepipodophyllotoxin] | 1.93 ± 1.67 µM | 1.51 ± 0.37 µM | 0.93 ± 0.84 µM |
| – | COc1cc(C2c3cc4c(cc3C(Sc3nnc(C)s3)C3COC(=O)C23)OCO4)cc(OC)c1O (stereo not drawn) [Compound 21, 4-S-(5-methyl-1,3,4-thiadiazol-2)-4-deoxy-4′-demethylepipodophyllotoxin] | 0.83 ± 0.14 µM | 0.52 µM | 5.76 ± 0.18 µM |
| – | COc1cc(C2c3cc4c(cc3C(Sc3ccccn3)C3COC(=O)C23)OCO4)cc(OC)c1O (stereo not drawn) [Compound 22, 4-S-(pyridin-2)-4-deoxy-4′-demethylepipodophyllotoxin] | 0.27 ± 0.03 µM | 2.31 ± 0.31 µM | 1.01 ± 0.38 µM |
| – | COc1cc(C2c3cc4c(cc3C(Sc3ncccc3C(=O)O)C3COC(=O)C23)OCO4)cc(OC)c1O (stereo not drawn) [Compound 23, 4-S-(3-picolinate-2)-deoxy-4′-demethylepipodophyllotoxin] | 6.68 ± 0.04 µM | 1.22 ± 0.25 µM | 2.03 ± 0.45 µM |
| – | COc1cc(C2c3cc4c(cc3C(Sc3cccc(C)n3)C3COC(=O)C23)OCO4)cc(OC)c1O (stereo not drawn) [Compound 24, 4-S-(6-methyl-pyridin-2)-4-deoxy-4′-demethylepipodophyllotoxin] | 4.01 ± 0.02 µM | 7.18 ± 0.07 µM | 1.11 ± 0.94 µM |
| – | COc1cc(C2c3cc4c(cc3C(Sc3ccncc3)C3COC(=O)C23)OCO4)cc(OC)c1O (stereo not drawn) [Compound 25, 4-S-(pyridin-4)-4-deoxy-4′-demethylepipodophyllotoxin] | 4.76 ± 0.12 µM | 0.73 ± 0.05 µM | 2.66 ± 0.27 µM |
| – | COc1cc(C2c3cc4c(cc3C(Sc3ncccn3)C3COC(=O)C23)OCO4)cc(OC)c1O (stereo not drawn) [Compound 26, 4-S-(pyrimidine-2)-4-deoxy-4′-demethylepipodophyllotoxin] | 0.51 ± 0.53 µM | 0.25 ± 0.32 µM | 4.28 ± 0.11 µM |
| – | COc1cc(C2c3cc4c(cc3C(Sc3nccc(N)n3)C3COC(=O)C23)OCO4)cc(OC)c1O (stereo not drawn) [Compound 27, 4-S-(4-amino-pyrimidine-2)-4-deoxy-4′-demethylepipodophyllotoxin] | 0.22 ± 0.03 µM | 1.33 ± 0.39 µM | 3.27 ± 0.17 µM |
| – | COc1cc(C2c3cc4c(cc3C(Sc3nc(C)cc(C)n3)C3COC(=O)C23)OCO4)cc(OC)c1O (stereo not drawn) [Compound 28, 4-S-(4,6-dimethyl-pyrimidine-2)-4-deoxy-4′-demethylepipodophyllotoxin] | 4.29 ± 0.83 µM | 5.26 ± 0.62 µM | 1.27 ± 1.12 µM |
| – | COc1cc(C2c3cc4c(cc3C(Sc3nc5ccccc5s3)C3COC(=O)C23)OCO4)cc(OC)c1O (stereo not drawn) [Compound 29, 4-S-(benzothiazol-2)-4-deoxy-4′-demethylepipodophyllotoxin] | 1.37 ± 0.43 µM | 4.57 ± 0.16 µM | 0.85 ± 0.93 µM |
| – | COc1cc(C2c3cc4c(cc3C(Sc3nc5ccccc5[nH]3)C3COC(=O)C23)OCO4)cc(OC)c1O (stereo not drawn) [Compound 30, 4-S-(benzimidazole-2)-4-deoxy-4′-demethylepipodophyllotoxin] | 0.31 ± 0.16 µM | 0.51 ± 0.13 µM | 1.24 ± 0.27 µM |
| 13.2 ± 1.65 µM | COc1cc([C@@H]2c3cc4c(cc3[C@@H](O[C@@H]3O[C@@H]5CO[C@@H](C)O[C@H]5[C@H](O)[C@H]3O)[C@H]3COC(=O)[C@H]23)OCO4)cc(OC)c1O [etoposide, reference compound] | – | – | – |
